The numbers were not newly measured in US20190117669A1, “Methods for Treating NSAID-Induced Cardiovascular, Cerebrovascular, or Renovascular Adverse Events” (University of Utah Research Foundation, priority 2016, published 2019), which cites them from elsewhere.

For series [1] the following is noted: dogs, misoprostol 3 mcg/kg every 8 hours for 8 days.
For series [2] the following is noted: rats, all misoprostol-treated groups.

Consider `CCCCC(C)(O)C/C=C/[C@H]1[C@H](O)CC(=O)[C@@H]1CCCCCCC(=O)OC` (mixture of isomers) [misoprostol], for which the “azotemia, hyperphosphatemia and renal histopathologic changes versus gentamicin alone” value in series [1] was “more severe azotemia, hyperphosphatemia, and renal histopathologic changes”. Besides, in series [2], the blood pressure result was “increased”.
